Experimental findings from ChEMBL document CHEMBL6134914, “Novel Bicyclic Heterocycles as MRGPRX2 Antagonists for Treating Inflammatory Diseases” (ACS Med Chem Lett, 2025) are described below.

A word on the IC50: it is the concentration that gives 50% inhibition.

The structures appear in SMILES notation.

The target in the experiment is T1, Mas-related G-protein coupled receptor member X2 (Homo sapiens, UniProt Q96LB1).
T1 sequence (Q96LB1 whole entry): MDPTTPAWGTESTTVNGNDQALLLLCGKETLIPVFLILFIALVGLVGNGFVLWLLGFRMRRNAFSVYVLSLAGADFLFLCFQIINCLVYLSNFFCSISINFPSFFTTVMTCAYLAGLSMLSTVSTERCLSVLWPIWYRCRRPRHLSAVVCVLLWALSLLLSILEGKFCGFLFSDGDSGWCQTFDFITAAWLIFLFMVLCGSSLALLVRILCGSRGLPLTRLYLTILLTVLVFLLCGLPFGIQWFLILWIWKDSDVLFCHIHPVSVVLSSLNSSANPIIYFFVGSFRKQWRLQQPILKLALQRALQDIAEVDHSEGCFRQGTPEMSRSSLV
Put plainly: Inhibition of human MRGPRX2 expressed in CHO-K1 cells assessed as Ca2+ release incubated for 30 mins by FLIPR calcium mobilization assay. It is filed as functional, cell-based.
`NS(=O)(=O)N1CC(CNc2cc(C(F)(F)F)nc3ccc(Cl)cc23)(c2ccc3ccccc3n2)C1`: the IC50 amounted to 0.1 nM. Turning to `Cc1csc(C2(CNc3cc(C(F)(F)F)nc4ccc(Cl)cc34)CN(S(N)(=O)=O)C2)n1`, the IC50 came out at 0.1 nM. For `NS(=O)(=O)N1CCC(CNc2cc(C(F)(F)F)nc3ccc(Cl)cc23)(c2ccc(F)cn2)CC1`, the IC50 was found to be 0.1 nM. For `NC(=O)N1CCC(CNc2cc(C(F)(F)F)nc3ccc(Cl)cc23)(c2ccc(F)cn2)C1` (stereo unspecified) the value was 0.1 nM.

Regarding `NS(=O)(=O)N1CC(CNc2cc(C(F)(F)F)nc3ccc(Br)cc23)(c2ccc(F)cc2)C1`, the half-maximal inhibitory concentration (IC50) is 0.1 nM. The same measure for `N#Cc1cnn(C2(CNc3cc(C(F)(F)F)nc4ccc(Cl)cc34)CN(C(N)=O)C2)c1`: 0.1 nM.
